Entries after “also recorded” stand apart in the source; their conditions may differ.
Assays:
[1] = molecular target: T1, ADRB2 (Homo sapiens, UniProt P07550); assay: GPCR Per-Luc assay, HEK293 cells stably expressing Arr-luc234V233 and transiently transfected with ADRB2-TEV; type: cell-based; settings: different concentrations, two hours
T1 construct: expressed in transfected cells

[2] = test system: Endogenous receptor EDG in HEK293 cells; assay: FLIPR and cAMP assays; settings: HEK293 endogenous EDG receptors
[3] = molecular target: T2, V2 vasopressin receptor (Homo sapiens, UniProt P30518); assay: GPCR Per-Luc assay, HEK293 cells stably expressing Arr-luc234V233 and transfected with V2-TEV; type: cell-based; settings: different concentrations, two hours
T2 construct: expressed in transfected cells; host or cells: HEK293 stably expressing Arr-luc234V233
T2 sequence (P30518 whole entry): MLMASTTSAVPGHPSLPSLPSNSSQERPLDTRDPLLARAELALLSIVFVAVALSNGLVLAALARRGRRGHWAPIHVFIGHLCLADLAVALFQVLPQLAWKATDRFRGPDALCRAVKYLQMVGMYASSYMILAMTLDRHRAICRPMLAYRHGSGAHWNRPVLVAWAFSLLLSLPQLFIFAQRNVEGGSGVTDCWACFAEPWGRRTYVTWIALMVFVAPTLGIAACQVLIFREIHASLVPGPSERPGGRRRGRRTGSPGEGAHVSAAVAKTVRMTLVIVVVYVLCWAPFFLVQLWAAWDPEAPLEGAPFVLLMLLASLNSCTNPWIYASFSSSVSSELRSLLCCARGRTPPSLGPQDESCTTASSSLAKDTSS
Protocol: HEK cells stably transfected with an arrestin/permuted luciferase construct were transiently transfected with a V2-TEV construct and induced with the agonist, 8AVP, arginine vasopressin (left graph).
Bright-GLO™ luciferase reagent was added to cells.

T1 sequence (P07550 whole entry): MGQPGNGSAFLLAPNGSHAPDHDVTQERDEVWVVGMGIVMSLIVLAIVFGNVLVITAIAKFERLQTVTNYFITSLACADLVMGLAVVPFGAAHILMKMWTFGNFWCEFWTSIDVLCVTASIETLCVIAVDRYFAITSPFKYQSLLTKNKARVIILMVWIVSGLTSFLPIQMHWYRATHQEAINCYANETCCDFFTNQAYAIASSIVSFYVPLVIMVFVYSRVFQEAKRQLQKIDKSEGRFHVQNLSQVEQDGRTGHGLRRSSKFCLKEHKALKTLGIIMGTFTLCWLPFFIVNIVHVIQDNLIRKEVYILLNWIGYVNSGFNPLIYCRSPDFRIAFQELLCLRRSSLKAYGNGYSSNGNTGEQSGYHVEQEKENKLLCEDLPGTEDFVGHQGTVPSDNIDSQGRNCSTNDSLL

CCCCCCCCCCCCC/C=C/[C@@H](O)[C@@H](N)COP(=O)(O)O [S1P, sphingosine-1-phosphate]
luciferase activity, compound alone [1]: did not affect the luciferase activity | signal in FLIPR and cAMP assays [2]: did produce positive signals

CCOc1ccc2c(c1)C1(CCC(OCCN3CCOCC3)CC1)C(=O)N2S(=O)(=O)c1ccc(C(=O)NC(C)(C)C)cc1OC (stereo not drawn) [SR121463]
luciferase activity (β arrestin recruitment to V2) [3]: increasing levels of luminescence were observed with increasing amounts; also recorded: induced a G protein-independent, arrestin-dependent signal
